Key:
HCC-1954 cells [1] = assay: Dose-matrix combination assay (synergy score, Loewe model); type: cell-based; details: combination with DUBA
MDA-MB-468 cells [2] = assay: as above; type: cell-based; details: combination with DUBA; MDA-MB-468, 6 d; S ± SD; cutoff ±1
BT-474 cells = assay: MNED curve-shift assay; type: cell-based
Source text: (§1) Therefore a curve-shift assay system was established. In a first step, a dose-response curve (DRC) is obtained by treating a certain cell line with an inhibitor. The maximum non-efficacious dose (MNED) can be derived from this DRC. MNED is the highest dose, that can be added to a certain cell line without affecting the viability. The activity of the ADC is confirmed in a separate experiment. Finally, a combination experiment can be conducted. Therefore, the ADC and ADC plus inhibitor at MNED are added to the cells. The inhibitor is tested in parallel at MNED as a control. Due to the application of inhibitor at MNED, no reduction in cell viability caused by the inhibitor is expected. Three outcomes are possible: 1) The combination of ADC plus inhibitor is equipotent as the ADC only. […] Such a result would be interpreted as depotentiation. […] In this case, the potency of the ADC is potentiated.
(§2) Potentiation effects are expressed as dose-reduction indices (DRI), which can be calculated by dividing the IC50-value of ADC by the IC50-value of ADC plus inhibitor according to eq. 1
(§3) Curve-shift assays were conducted as follows: The cell number and viability was determined using ViCell™-XR (Beckman Coulter) and seeded in opague 96-well plate (10k viable cells/well). After seeding, the plate was incubated (37° C., 5% C02) in a humid chamber overnight. Compounds were diluted in the appropriate medium, added to the cells and the plate was incubated (37° C., 5% CO2, 6 d) in a humid chamber. After 30 min equilibration at room temperature, CellTiter-Glo reagent (Promega) was added. After the plate was shaken (3 min, 550 rpm, rt) it was incubated (10 min, rt) and luminescence was read on a synergy 4 plate reader (BioTek). Evaluation was performed using GraphPad Prism version 6.05. Therefor luminescence values were normalized to luminescence values of non-treated cells and dose-response was fitted with 4-point logistic fit.
(§4) The determination of dose-reduction indices (DRI) in a maximum non-efficacious dose (MNED) curve-shift assay is a 3-step process as depicted exemplarily in FIG. 13. The cytotoxicity of the ADC is confirmed in a cell viability assay in an initial step. […] In the second step. the MNED of the ATRi was determined. […] In order to obtain a full […] for the combination, the starting concentration of the ADC was lowered compared to the experiment in step 1.

MDA-MB-453 cells [3] = assay: MNED curve-shift assay; type: cell-based
Source text: as §1, §2, §3, §4

SK-OV-3 cells = assay: MNED curve-shift assay; type: cell-based
Source text: as §1, §2, §3, §4

HCC-1954 cells [4] = assay: MNED curve-shift assay; type: cell-based; details: HCC-1954
Source text: as §1, §2, §3, §4

SK-BR-3 cells = assay: MNED curve-shift assay; type: cell-based
Source text: as §1, §2, §3, §4

Calu-3 cells = assay: MNED curve-shift assay; type: cell-based
Source text: as §1, §2, §3, §4

JIMT-1 cells = assay: MNED curve-shift assay; type: cell-based
Source text: as §1, §2, §3, §4

MDA-MB-468 cells [5] = assay: MNED curve-shift assay; type: cell-based
Source text: as §1, §2, §3, §4

MDA-MB-361 cells = assay: MNED curve-shift assay; type: cell-based
Source text: as §1, §2, §3, §4

NCI-N87 cells = assay: Dose-matrix combination assay (synergy score, Loewe model); type: cell-based; details: NCI-N87
MDA-MB-453 cells [6] = assay: as above; type: cell-based; details: MDA-MB-453
[7] = Xenograft experiment, tolerability (body weight); set-up: species or system H2d Rag2 mice; details: mouse, in vivo
Protocol: The tolerability of the anti-cancer treatment was assessed considering the overall condition of the animal as well as body-weight changes of the mice (FIG. 22).

NCI-N87 xenografts = assay: Xenograft experiment, therapeutic efficacy; details: single agent: αHER2-6 1.0 mg/kg i.v. single dose; ATRi 50 mg/kg per oral once daily 14 d
Protocol: Female H2d Rag2 mice, 6-8 weeks old, were obtained from Taconic Biosciences, LLC. A xenograft was established by harvesting NCI-N87 cells from cell culture, mixing the cells 1:1 with Matrigel and injecting 2.5×10^6 cells subcutaneously into the flank of the mice. The tumor volume was assessed twice weekly by length measurements in two dimensions using calipers. The volume was calculated following eq. 3 where the length L is the longest tumor length and W is the shortest tumor length.
After an initial tumor growth phase, mice were randomized and assigned to treatment groups comprising 10 animals. The initial tumor volume amounted to approximately 100 mm^3 when treatment started. Vehicle treated mice obtained a solution of 0.5% Methocel, 0.25% Tween-20 in water. […] Mice were weighted twice weekly to assess the body-weight during the treatment period. The criteria to terminate the study for single animals were skin ulcerations, tumor length exceeding 15 mm or tumor exceeding 10% of the body weight. In addition, body weight loss was a criterium for termination if body weight loss exceeded 20% accompanied with a haggard appearance, body weight loss exceeded 20% on three successive days or if body weight loss exceeded 25% of the adjusted body weight.

## C[C@@H]1COCCN1c1cc(C2(S(C)(=N)=O)CC2)nc(-c2ccnc3[nH]ccc23)n1 (stereo partly drawn) [AZD6738, 4-{4-[(3R)-3-methylmorpholin-4-yl]-6-[1-(S-methylsulfonimidoyl)cyclopropyl]pyrimidin-2-yl}-1H-pyrrolo[2,3-b]pyridine]
HCC-1954 cells [1]; HCC-1954, 6 d, S ± SD, cutoff ±1
  Synergy score S: 6.9±0.7
HCC-1954 cells [1]; cell line not given (screen on HCC-1954 or MDA-MB-468)
  Synergy score S: 7.6
HCC-1954 cells [1]; hotspot 160 to 630 nM AZD6738 and 0.16 to […] DUBA
  additional cancer cells killed versus additive (Loewe) prediction: up to 69%
MDA-MB-468 cells [2]
  Synergy score S: 5.7±1.0
BT-474 cells
  MNED (maximum non-efficacious dose): 1000 nM
MDA-MB-453 cells [3]
  MNED (maximum non-efficacious dose): 111 nM
SK-OV-3 cells
  MNED (maximum non-efficacious dose): 150 nM
HCC-1954 cells [4]
  MNED (maximum non-efficacious dose): 250 nM
SK-BR-3 cells
  MNED (maximum non-efficacious dose): 150 nM
Calu-3 cells
  MNED (maximum non-efficacious dose): 400 nM
JIMT-1 cells
  MNED (maximum non-efficacious dose): 80 nM
MDA-MB-468 cells [5]
  MNED (maximum non-efficacious dose): 300 nM
MDA-MB-361 cells
  MNED (maximum non-efficacious dose): 111 nM
NCI-N87 cells; combination with ADC αHER2-2
  Synergy score S: 3.7±0.7
NCI-N87 cells; combination with ADC αHER2-6
  Synergy score S: 3.0±0.05
MDA-MB-453 cells [6]; combination with ADC αHER2-2
  Synergy score S: 9.1±2.1
MDA-MB-453 cells [6]; combination with ADC αHER2-6
  Synergy score S: 9.5±0.9
[7]
  tolerability (conclusion): well tolerated
NCI-N87 xenografts
  tumor response (tumor volume): not statistically different from the vehicle-treated group
